Columns and labels:
[1] = tested on: healthy volunteers; experiment: Ascending dose level safety study (Phase I) of alvimopan, TID for 4 days; type: in vivo
Text: This was an ascending dose level safety study (Phase I) intended to determine the frequency and severity of adverse events (AEs) and to estimate the maximum tolerated dose of alvimopan. Subjects were screened to ensure their status as healthy volunteers. They were only enrolled if they had no clinically significant abnormalities on history, physical, or laboratory examinations. Post study physical examination and laboratory tests, including serum chemistries and complete blood count, were performed.
Alvimopan or placebo was administered TID for 4 days.
One subject in each dose group was randomly assigned to receive placebo that was identical in appearance to the active study medication.
Forty-four subjects were randomized for treatment. One subject at each dose level received placebo (N=5); the rest received alvimopan. […] The incidence of gastrointestinal AEs increased with increasing dose of alvimopan. One or more incidence of mild or moderate “abdominal pain” was reported by 83-100% of subjects receiving 18 or 54 mg daily doses (6 or 18 mg TID), but was infrequent at lower doses (range 11-18%). One or more incidence of diarrhea was reported by 83% of subjects receiving 54 mg daily doses (18 mg TID), but was infrequent at lower doses (range 9-22%). One or more incidence of flatulence was reported by 50-78% of subjects receiving 18 or 54 mg daily doses (6 or 18 mg TID), but was less frequent at lower doses (range 18-33%). One subject receiving the highest dose, 54 mg/day (18 mg TID), withdrew during the second day of dosing due to adverse events of abdominal pain, nausea, and diarrhea.

[2] = tested on: subjects with functional constipation; experiment: Oral-cecal transit time, lactulose hydrogen breath test, cross-over study; type: in vivo, human; conditions: 3 mg BID, Day 7, lactulose hydrogen breath test
Text: (§1) Subjects underwent measurement of their whole bowel transit (radio-opaque markers) and oral-cecal transit (hydrogen-breath test) prior to receiving the first treatment (baseline) and at the end of each treatment period. During the screening and treatment periods, subjects recorded the time of each bowel movement (defecatory frequency), an assessment of each stool's consistency (using the Bristol Stool Form Scale), and an overall rating of their satisfaction with their bowel movements over each period (1-5 scale: 1=much worse than usual, 2=worse than usual, 3=no change, 4=better than usual, 5=much better than usual). Stool output per 7-day period was calculated from the weight of all stools collected during each treatment period (stools collected over the 7-day assessment period).
The transit time for mouth to cecum, a reflection of small bowel transit, was measured utilizing the hydrogen breath test. […] The time between ingestion of lactulose (10 g) and the sustained increase in hydrogen in the breath (hydrogen concentration in end-expiratory breath samples as measured by gas chromatography) represents the oral-cecal transit time (OCTT). […] Breath samples were measured every 15 minutes following ingestion of the lactulose. Transit time was determined by the first time of three consecutive samples in which there was at least a doubling of the baseline breath hydrogen concentration. […]

[3] = tested on: subjects with functional constipation; experiment: Whole bowel transit (radio-opaque markers) and mean colonic transit time, placebo-controlled cross-over study; type: in vivo, human; conditions: 3 mg BID for 7 days
Experimental: A single-center, placebo-controlled, randomized, double-blind, balanced two period cross-over study of the effect of alvimopan on GI transit in subjects with functional constipation was carried out.
Subjects (n=24) meeting the initial screening criteria for functional constipation by history, and who had 3 or fewer stools during a 7-day screening period, were randomly assigned to receive initially either orally-administered alvimopan, 3 mg twice daily for 7 days or matching placebo. Following a two- to four-week washout period, subjects received the opposite treatment for a 7-day period.
as §1
Whole bowel transit was determined by using a modification of the radio-opaque marker method developed by Metcalf et al., Gastroenterology, 1987, 92: 40-47. This method is reproducible and correlates well with scintigraphic methods of measuring colonic transit (Degen, et al., Gut, 1996, 39: 299-305). Subjects ingested, at 8:00 AM on the mornings of Days 3, 4, 5, one capsule containing 24 radio-opaque markers (Sitzmark; Konsyl Pharmaceuticals, Fort Worth, Tex.). Stools from Days 3 to 7 were collected and examined by x-ray for the presence of the radio-opaque markers. […] Weights were assigned to the six locations in the colon and a weighted average of the number of radio-opaque markers in the colon was calculated. […]
This single-center, randomized, placebo-controlled, crossover trial was designed to determine the effect of alvimopan on bowel transit of patients with chronic constipation. […] Safety and tolerability were assessed.
(§2) The following were performed for each test arm: WBT estimated by a weighted sum of retained radio-opaque markers (based on number and location in the colon on single x-ray 48 hours post marker ingestion) and mean colonic transit time (MCTT) calculated by the method of Metcalf et al., Gastroenterology, 1987, 92: 40-47; and bowel movement frequency (BMF) and symptoms by patient self-report diary card.

[4] = Solubility in water; type: physicochemical; conditions: except at low or high pH conditions
[5] = tested on: subjects with functional constipation; experiment: Bowel movement frequency and symptoms by patient self-report diary card, cross-over study; type: in vivo, human
Text: as §1
Each treatment period comprised seven days of dosing (oral alvimopan 3 mg or matching placebo, given at 8:00 AM and 8:00 PM). For each defecation, subjects recorded the time, date, and stool form (Bristol Stool Form Criteria) (Heaton, et al., Gut, 1991, 73-79). Subjects rated their overall satisfaction with their bowel movements for the treatment period on Day 7.
For Day 1 of each treatment period, the following procedures were conducted in the clinic prior to the morning dosing: a urine drug screen, and a urine/serum pregnancy test (when applicable), semi-supine (i.e., 45-degree angle, pillow, etc.) blood pressure and pulse rate measurements and recording of baseline signs and symptoms. All subjects received their first dose of alvimopan 3 mg or placebo after a light breakfast in the clinic at approximately 8 AM in the morning and according to the randomization schedule. Each dose of alvimopan or placebo was taken with 240 ml of still room-temperature water at each dosing occasion. Subjects were then dispensed the study drug to be taken until the evening dose on Day 5, as well as the Stizmark capsules containing the radio-opaque markers and discharged. Subjects were admitted to the study unit on the evening of Day 5 until completion of the transit studies on Day 7. They were asked to complete a medication diary with the times of morning and evening dosing as an outpatient, as well as any symptoms they experienced at home. Subjects collected all stools from Days 1 to 7. Subjects recorded the time, date, and stool form (Bristol Stool Form Criteria) (Heaton, et al., Gut, 1991, 73-79) for each defecation. Subjects rated their overall satisfaction with their bowel movements for the treatment period on Day 7.
(§3) This single-center, randomized, placebo-controlled, crossover trial was designed to determine the effect of alvimopan on bowel transit of patients with chronic constipation. Whole bowel transit (WBT), bowel movement frequency as total bowel movement (BM), and spontaneous complete BM (SCBM), BM symptoms of straining, discomfort, and satisfaction were compared between placebo and alvimopan (3 mg BID) for 7 days. Safety and tolerability were assessed.
as §2

[6] = tested on: subjects with functional constipation; experiment: Safety and tolerability in the cross-over study; type: in vivo, human; conditions: 3 mg BID for 7 days
Text: Subjects were given a physical examination, vital signs, and blood and urine samples obtained for safety laboratory studies at the conclusion of their last treatment period. Any abnormal findings were followed until resolution.
as §3

[7] = 18 or 54 mg daily doses (6 or 18 mg TID)

With `C[C@H]1CN(C[C@H](Cc2ccccc2)C(=O)NCC(=O)O)CC[C@@]1(C)c1cccc(O)c1` [alvimopan, [[(2S)-2-[[(3R,4R)-4-(3-hydroxyphenyl)-3,4-dimethylpiperidin-1-yl]methyl]-3-phenylpropanoyl]amino]acetic acid dihydrate] the “subjects reporting one or more incidence of diarrhea” value ([1]; 54 mg daily doses (18 mg TID)) was 83%, the “subjects withdrawn due to adverse events of abdominal pain, nausea, and diarrhea” value ([1]; 54 mg/day (18 mg TID), second day of dosing) was “One” and the “subjects reporting one or more incidence of flatulence” value [1, 7] was 50-78%. The “subjects reporting one or more incidence of mild or moderate abdominal pain” value [1, 7] was 83-100%, the tolerability ([1]; doses up to 54 mg daily (18 mg TID) for 4 days) was “generally well tolerated” and the “subjects reporting one or more incidence of diarrhea” value ([1]; lower doses) was 9-22%. The “subjects reporting one or more incidence of flatulence” value ([1]; lower doses) was 18-33%, the “subjects reporting one or more incidence of mild or moderate abdominal pain” value ([1]; lower doses) was 11-18% and the OCTT v. placebo [2] was “not changed”. For the same molecule, the “reduction in MCTT versus placebo” value [3] was 19%, the “reduction in weighted sum of retained radio-opaque markers (faster whole bowel transit) versus placebo” value ([3]; p<0.049) was 32% and the “mean colonic transit time (MCTT)” value ([3]; placebo 69±5) was 56 ± 6 h. The “WBT, weighted sum of retained radio-opaque markers” value ([3]; placebo 160±17) was 109±17 WSM, the solubility in water [4] was “low solubility” and the “BM consistency compared to placebo” value ([5]; 3 mg BID for 7 days) was “improved”. For the same molecule, the “BM discomfort compared to placebo” value ([5]; 3 mg BID for 7 days) was “improved”, the “BM satisfaction compared to placebo” value ([5]; 3 mg BID for 7 days) was “improved” and the “BM straining compared to placebo” value ([5]; 3 mg BID for 7 days) was “improved”. The “mean increase above baseline for SCBM” value ([5]; 3 mg BID over 7 days, placebo 0.3) was 0.6, the “mean increase above baseline for BMF” value ([5]; 3 mg BID over 7 days, placebo 0.5) was 1.0 and the “mean bowel movement Bristol Stool Form Scale score” value ([5]; FIG. 2, 3 mg BID for 7 days) was “increased”. The “% of bowel movements with no/mild straining or discomfort” value ([5]; FIG. 3, 3 mg BID for 7 days) was “increased”, the “incidence of GI-related adverse effects versus placebo arm” value [6] was “slightly higher” and the “severity of adverse events” value ([6]; both arms) was “generally mild”. For the same molecule, the “premature discontinuation due to an adverse effect” value ([6]; either treatment arm) was “No subjects prematurely discontinued”.

From patent publication US20050148630A1, “Methods of preventing and treating non-opioid induced gastrointestinal dysfunction” (priority 2003, published 2005)
